In patent US20250368714A1, “TREATMENT OF CANCER” (Immutep S.A.S., priority 2022, published 2025):
Where two headings read alike, the source gives them in different places.

Key:
[1] = tested on: Patients with HR+ HER2-Neg/Low after Failure of ET Based Therapy; details: No prior CDK4/6; cited from earlier work
[2] = tested on: Patients with HR+ HER2-Neg/Low after Failure of ET Based Therapy; test: Efficacy of single agent chemotherapy after failure of ET based therapy; format: in vivo, human; details: Prior CDK4/6
Description: Efficacy of Single Agent Chemotherapy for Patients with HR^+ HER2-Neg/Low after Failure of ET Based Therapy

[3] = tested on: HER2 negative hormone receptor-positive metastatic breast cancer patients; test: AIPAC Phase IIb study: paclitaxel+IMP321 vs paclitaxel+placebo, overall survival; format: in vivo, human; details: AIPAC paclitaxel plus placebo group
Procedure: A multicentre, placebo-controlled, double-blind, 1:1 randomised Phase IIb study in female HER2 negative hormone receptor-positive metastatic breast cancer patients was conducted. The study comprised two stages: • stage 1 which was an open-label, safety run-in stage consisting of cohorts 1 and 2 to confirm the recommended Phase II dose (RPTD) of IMP321 in combination with paclitaxel; and • stage 2 which was a placebo-controlled, double-blind randomisation stage, paclitaxel+IMP321 at the RPTD compared to paclitaxel+placebo.
The chemo-immunotherapy phase consisted of 6 cycles of 4 weeks. Patients received weekly paclitaxel at Days 1, 8 and 15 with adjunctive treatment of study agent (IMP321) on Days 2 and 16 of each 4-week cycle. After completion of the 6-cycle chemo-immunotherapy phase, responding or stable patients received study agent (IMP321) every 4 weeks during the maintenance phase for an additional period of up to 12 injections.
The chemo-immunotherapy phase consisted of 6 cycles of 4 weeks. Patients received weekly paclitaxel at Days 1, 8 and 15 with adjunctive treatment of study agent (placebo) on Days 2 and 16 of each 4-week cycle.
After completion of the 6-cycle chemo-immunotherapy phase, responding or stable patients received study agent (placebo) every 4 weeks during the maintenance phase for an additional period of up to 12 injections. […]

[4] = tested on: unresectable locally advanced or metastatic PD-L1 positive TNBC; details: PD-L1 inhibitor plus paclitaxel; cited from earlier work
[5] = tested on: locally recurrent unresectable or metastatic TNBC; details: patients with CPS of 10 or more; cut-off Dec. 11, 2019; placebo-chemotherapy 5.6; cited from earlier work

CCCCCOC(=O)Nc1nc(=O)n([C@@H]2O[C@H](C)[C@@H](O)[C@H]2O)cc1F [Capecitabine, capecitabine]
ORR (%) [1]: 19-30%
OS (months) [1]: 9.3-18 months
PFS (months) [1]: 2.8-5.9 months

CC(=O)O[C@H]1C(=O)[C@@]2(C)[C@H]([C@H](OC(=O)c3ccccc3)[C@]3(O)C[C@H](OC(=O)[C@H](O)[C@@H](NC(=O)c4ccccc4)c4ccccc4)C(C)=C1C3(C)C)[C@]1(OC(C)=O)CO[C@@H]1C[C@@H]2O [Paclitaxel, paclitaxel]
ORR (%) [2]: 36%
OS (months) [2]: 14.9 months
PFS (months) [2]: 6.7 months
ORR (%) [1]: 21-51%
OS (months) [1]: 20.4-25.8 months
PFS (months) [1]: 5.9-8.8 months
OS ([3]; no prior CDK4/6 therapy): 20.4 months
median OS ([3]; patients pre-treated with CDK4/6): 14.9 months

atezolizumab: PD-L1 inhibitor tested plus paclitaxel in IMpassion131
PFS over paclitaxel alone [4]: did not demonstrate a statistically significant improvement in PFS

pembrolizumab-chemotherapy: pembrolizumab in combination with chemotherapy (paclitaxel, nab-paclitaxel, or carboplatin-gemcitabine), KEYNOTE-355
median PFS [5]: 9.7 months
